In patent publication US20240277642A1, “POLYMERIZED VALPROIC ACID AND USE THEREOF” (UNIVERSITY OF TSUKUBA, priority 2021, published 2024):

Experiment: toxicity evaluation by changes in body weight
Assay type: in vivo, mice
Conditions: intraperitoneal, 500 mg/kg for 5 days; FIG. 6
Procedure: To evaluate the toxicity of VPA and Nano^VPA, VPA and Nano^VPA were intraperitoneally administered at a dose of 500 mg/kg for 5 days, and changes in body weight of the mice were observed.

CCCC(CCC)C(=O)O [VPA, valproic acid]
changes in body weight: a decrease in body weight
